Source: patent publication US20100209486A1, “Method of enhancing CoenzymeQ10 levels in mammals” (priority 2009, published 2010)
Entries after “also recorded” stand apart in the source; their conditions may differ.

Experiment: HPLC and MS determination of CoQ9 and CoQ10 in heart samples of supplemented guinea pigs
Type: in vivo, guinea pig
Settings: 5 mg/kg/day CoQ9 oral for 4 weeks, heart tissue
Experimental: FIG. 3. HPLC chromatograms of a) Blank (mobile phase) b) CoQ9 standard solution c) CoQ10 standard solution and d) CoQ9 heart sample. The standards and sample solution were analyzed using an Agilent 1100 HPLC. The mobile phase was methanol-2-propanol-formic acid (45:55:0.05, v/v/v) containing methylamine at the concentration of 5 mmol/L. At a flow rate of 0.2 ml/min, 5 μl injections of the samples were done using the autosampler. The CoQ9 peak eluted at 2.39 minutes and the CoQ10 eluted at 2.86 minutes. However, the CoQ9 heart sample peak eluted at […], which is the same as CoQ10, thus indicating the presence of CoQ10 rather than CoQ9 in the sample.
FIG. 4. Mass Spectrometry (MS). (a) CoQ10 standard, b) CoQ9 standard, c) CoQ10 heart sample) Methylamine was used in the mobile phase to obtain the methyl ammonium adduct molecules of CoQ9 and CoQ10. The sensitivity of the adduct ions [M+CH3NH3]^+ was much higher than that of the protonated ions [M+H]^+ [7]. The MS spectra of both [M+CH3NH3][…] at m/z 826.5 for CoQ9 and m/z 894.6 for CoQ10 were observed. However, the CoQ9 heart sample indicated a mass peak at m/z 894.6, which matches the peak for CoQ10 and not CoQ9. Therefore, there was evidence of CoQ10 in the CoQ9 heart sample from the mass spec. data. This confirmed the hypothesis of bio-conversion of CoQ9 to CoQ10.
However, the retention time of CoQ9 heart sample indicated a retention time of 2.86 minutes and not 2.39 minutes (FIG. 3d). The retention time of the CoQ9 heart sample matched with that of CoQ10 rather than CoQ9. The qualitative analysis was done by identifying the compounds by their retention times. It was obvious that at this point CoQ9 was probably bio-converted to CoQ10. […]
Preparation of CoQ9 and CoQ10 heart samples: Animal preparation, drug pretreatment and isolated working heart preparation were done as described in example 1. […] The samples were analyzed immediately after preparation, and the remainder of the standard solutions was stored at 5° C. for future analysis. […]

SMILES: COC1=C(OC)C(=O)C(C/C=C(\C)CC/C=C(\C)CC/C=C(\C)CC/C=C(\C)CC/C=C(\C)CC/C=C(\C)CC/C=C(\C)CC/C=C(\C)CCC=C(C)C)=C(C)C1=O [CoQ9, Coenzyme Q9]
- CoQ9 detected in the heart after CoQ9 supplementation: no CoQ9 could be detected in the heart; also recorded: very small or no amount of CoQ9
- bioconversion of CoQ9 into CoQ10: a substantial portion of CoQ9 had been bio-converted into CoQ10; also recorded: complete bioconversion of CoQ9 into CoQ10
- CoQ10 content in the heart after CoQ9 supplementation (control chromatogram subtracted): appreciable amount of CoQ10 in the heart tissue; also recorded: significantly high enrichment in the CoQ10 content
